Results as given in patent US12162840B2, “Herbicidal compositions” (SYNGENTA PARTICIPATIONS AG, priority 2018, dated 2024).

Test system: warm season plant species
Assay: B2 Post-emergence efficacy Test 2, warm season plant species
Assay type: in vivo
Details: 15 days after application, 0-100 scale, 0=no damage, 100=total kill; for Herbicidal activity, ABUTH: Abutilon theophrasti; for Herbicidal activity, AMARE: Amaranthus retroflexus; for Herbicidal activity, BIDPI: Bidens pilosa; for Herbicidal activity, BRAPL: Brachiaria plantaginea; for Herbicidal activity, DIGSA: Digitaria sanguinalis; for Herbicidal activity, ECHCG: Echinochloa crus galli; for Herbicidal activity, ELEIN: Eleisine indica; for Herbicidal activity, EPHHL: Euphorbia hetrophylla; for Herbicidal activity, GLXMA: Glycine max; for Herbicidal activity, IPOHE: Ipomoea hederacea; for Herbicidal activity, ORYSA: Orysa sativa; for Herbicidal activity, PANMI: Panicum miliaceum; for Herbicidal activity, SETFA: Setaria faberi; for Herbicidal activity, SIDSP: Sida spinosa; for Herbicidal activity, SORVU: Sorghum bicolour; for Herbicidal activity, XANST: Xanthium strumarium; for Herbicidal activity, ZEAMX: Zea mays
Experimental: Seeds of a variety of test species (see Table B1) were sown in standard soil in pots. After cultivation for 12 days (post-emergence) under controlled conditions in a glasshouse (at 24/18° C. or 20/16° C., at day/night; 16 hours light; 65% humidity), the plants were sprayed with an aqueous spray solution derived from the formulation of the technical active ingredient dissolved in IF50 (see Table B2 for composition) and adjuvant (Genapol XO80) was added to the spray solution at a rate of 0.2% v/v. [table] [table] After application, the test plants were grown in a glasshouse under controlled conditions (as above) and watered twice daily. Herbicidal activity was evaluated 15 days after application on a 0-100 scale. The results, where 0=no damage to test plant and 100=total kill of test plant are shown below in Tables 6 to 9.

Cc1nn(C)c(=O)c(-c2c(F)ccc(Cl)c2CCc2ccc(C#N)cc2)c1O [Compound 1.024]
90: Herbicidal activity, ABUTH (15 g/Ha) | Herbicidal activity, ABUTH (30 g/Ha) | Herbicidal activity, AMARE (30 g/Ha) | Herbicidal activity, AMARE (60 g/Ha) | Herbicidal activity, BIDPI (500 g/Ha) | Herbicidal activity, BRAPL (500 g/Ha) | Herbicidal activity, DIGSA (250 g/Ha) | Herbicidal activity, DIGSA (500 g/Ha) | Herbicidal activity, ECHCG (125 g/Ha) | Herbicidal activity, ECHCG (250 g/Ha) | Herbicidal activity, EPHHL (30 g/Ha) | Herbicidal activity, EPHHL (60 g/Ha) | Herbicidal activity, EPHHL (125 g/Ha) | Herbicidal activity, GLXMA (60 g/Ha) | Herbicidal activity, GLXMA (125 g/Ha) | Herbicidal activity, PANMI (125 g/Ha) | Herbicidal activity, PANMI (250 g/Ha) | Herbicidal activity, SETFA (125 g/Ha) | Herbicidal activity, SETFA (250 g/Ha) | Herbicidal activity, SIDSP (30 g/Ha) | Herbicidal activity, SIDSP (60 g/Ha) | Herbicidal activity, SORVU (250 g/Ha)
40: Herbicidal activity, DIGSA (60 g/Ha) | Herbicidal activity, ELEIN (30 g/Ha) | Herbicidal activity, ELEIN (60 g/Ha) | Herbicidal activity, ORYSA (500 g/Ha) | Herbicidal activity, ZEAMX (125 g/Ha)
60: Herbicidal activity, BRAPL (30 g/Ha) | Herbicidal activity, ELEIN (125 g/Ha)
80: Herbicidal activity, AMARE (15 g/Ha) | Herbicidal activity, BIDPI (15 g/Ha) | Herbicidal activity, BIDPI (30 g/Ha) | Herbicidal activity, BIDPI (60 g/Ha) | Herbicidal activity, BIDPI (125 g/Ha) | Herbicidal activity, BIDPI (250 g/Ha) | Herbicidal activity, DIGSA (125 g/Ha) | Herbicidal activity, ECHCG (30 g/Ha) | Herbicidal activity, ECHCG (60 g/Ha) | Herbicidal activity, ELEIN (250 g/Ha) | Herbicidal activity, ELEIN (500 g/Ha) | Herbicidal activity, GLXMA (30 g/Ha) | Herbicidal activity, PANMI (60 g/Ha) | Herbicidal activity, SETFA (60 g/Ha) | Herbicidal activity, SIDSP (15 g/Ha) | Herbicidal activity, SORVU (125 g/Ha) | Herbicidal activity, XANST (60 g/Ha) | Herbicidal activity, XANST (125 g/Ha)
30: Herbicidal activity, BRAPL (15 g/Ha)
0: Herbicidal activity, DIGSA (15 g/Ha) | Herbicidal activity, ELEIN (15 g/Ha) | Herbicidal activity, ORYSA (15 g/Ha) | Herbicidal activity, ORYSA (30 g/Ha) | Herbicidal activity, ORYSA (60 g/Ha) | Herbicidal activity, ORYSA (125 g/Ha) | Herbicidal activity, PANMI (15 g/Ha) | Herbicidal activity, SORVU (15 g/Ha) | Herbicidal activity, ZEAMX (15 g/Ha)
70: Herbicidal activity, BRAPL (60 g/Ha) | Herbicidal activity, BRAPL (125 g/Ha) | Herbicidal activity, BRAPL (250 g/Ha) | Herbicidal activity, ECHCG (15 g/Ha) | Herbicidal activity, EPHHL (15 g/Ha) | Herbicidal activity, GLXMA (15 g/Ha) | Herbicidal activity, PANMI (30 g/Ha) | Herbicidal activity, SETFA (30 g/Ha) | Herbicidal activity, SORVU (60 g/Ha) | Herbicidal activity, ZEAMX (250 g/Ha)
100: Herbicidal activity, ABUTH (60 g/Ha) | Herbicidal activity, ABUTH (125 g/Ha) | Herbicidal activity, ABUTH (250 g/Ha) | Herbicidal activity, ABUTH (500 g/Ha) | Herbicidal activity, AMARE (125 g/Ha) | Herbicidal activity, AMARE (250 g/Ha) | Herbicidal activity, AMARE (500 g/Ha) | Herbicidal activity, ECHCG (500 g/Ha) | Herbicidal activity, EPHHL (250 g/Ha) | Herbicidal activity, EPHHL (500 g/Ha) | Herbicidal activity, GLXMA (250 g/Ha) | Herbicidal activity, GLXMA (500 g/Ha) | Herbicidal activity, IPOHE (30 g/Ha) | Herbicidal activity, IPOHE (60 g/Ha) | Herbicidal activity, IPOHE (125 g/Ha) | Herbicidal activity, IPOHE (250 g/Ha) | Herbicidal activity, IPOHE (500 g/Ha) | Herbicidal activity, PANMI (500 g/Ha) | Herbicidal activity, SETFA (500 g/Ha) | Herbicidal activity, SIDSP (125 g/Ha) | Herbicidal activity, SIDSP (250 g/Ha) | Herbicidal activity, SIDSP (500 g/Ha) | Herbicidal activity, SORVU (500 g/Ha) | Herbicidal activity, XANST (500 g/Ha) | Herbicidal activity, ZEAMX (500 g/Ha)
10: Herbicidal activity, SORVU (30 g/Ha) | Herbicidal activity, ZEAMX (30 g/Ha)
20: Herbicidal activity, DIGSA (30 g/Ha) | Herbicidal activity, ORYSA (250 g/Ha) | Herbicidal activity, SETFA (15 g/Ha) | Herbicidal activity, ZEAMX (60 g/Ha)
